According to patent publication US20260158018A1, “PERFUSATE CONTAINING NICOTINAMIDE FOR INTRAOCULAR SURGERY, METHOD OF PREPARATION AND USE THEREOF” (EYE INSTITUTE OF SHANDONG FIRST MEDICAL UNIVERSITY …, priority 2023, published 2026):

How the values were obtained:
rabbit CECs = experiment: Rabbit lens phacoemulsification model with NAM-containing perfusate; type: in vivo, New Zealand white rabbits; conditions: for corneal transparency / edema: 2 days after surgery; for corneal transparency / edema / recovery of corneal thickness / protective effect on CECs in phacoemulsification: NAM versus Gln in perfusate; for corneal transparency / edema / recovery of corneal thickness: FIG. 7; for protective effect on CECs in phacoemulsification: conclusion
Description: Animals: New Zealand white rabbits (age, 1.5 years; weight, 5-7 kg) were purchased from Jinan Xilingjiao Biological Co., Ltd. New Zealand white rabbits were kept in a pathogen-free environment in the animal house of the Eye Institute of Shandong First Medical University.
Animal model: the pupils were dilated three times with 0.5% compound tropicamide eye drops. Sedation was performed first, and the rabbits were anesthetized according to 20 mg/kg intramuscular injection of xylazine hydrochloride injection and 3% pentobarbital sodium injection (15 mg/kg) intravenously at the ear margin. The right eye of each rabbit was subjected to phacoemulsification for lens removal using the WHITESTAR Signature® Phacoemulsification System (Signature, AMO, USA). The left eye was used as the normal eye. A 3.0-mm clear corneal tunnel incision was made at the position of 11 to 12 o'clock, and continuous curvilinear capsulorhexis was performed in the center of the anterior capsular membrane of the lens, with a torn capsule diameter of approximately 5.0 mm. Phacoemulsification was then performed to suction out the lens contents, including the nucleus of the lens and the residual lens cortex, with the setting of ultrasonication energy of 30-50% and the ultrasonication time of 4-6 min. At the end of the procedure, the New Zealand white rabbits were administered with tobramycin and dexamethasone eye ointment in the conjunctival sac.
Perfusate: balanced salt solution containing 1 mM NAM (refers to compound electrolyte intraocular irrigating solution, Shike®, Shenyang Xingqi Pharmaceutical Co., Ltd.): NAM was added to the balanced salt solution until the concentration of NAM in the perfusate was 1 mM; balanced salt solution containing 2.5 mM NAM: NAM was added to the balanced salt solution until the concentration of NAM in the perfusate was 2.5 mM; balanced salt solution containing 5 mM NAM: NAM was added to the balanced salt solution until the concentration of NAM in the perfusate was 5 mM; balanced salt solution alone as control group: an equal amount of PBS was added to the balanced salt solution.
Immunofluorescence staining: immunofluorescence detection of the expression of functional proteins ZO1 and ATP1A1.
Alizarin Red Staining: gross corneas of New Zealand rabbits were collected and fixed in sterile saline. The cornea was flattened by cutting it into four flaps using ophthalmic microscopic scissors. The corneas were stained with alizarin red staining solution for 2 min, followed by washing the corneas at least three times with sterile saline. Cover slips were put on, changes in the CECs of New Zealand rabbits were observed under a microscope, image acquisition was performed, and all experiments were repeated at least 3 times. Endothelial cell density, coefficient of variation, and hexagonal ratio were determined using alizarin red-stained images of New Zealand rabbit corneas. By using an endothelial microscope by 2 uninformed observers, cell density was normalized to the area of each image in square millimeters. For each image, an area containing at least 60 cells was selected.
Slit lamp photography: changes in corneal transparency in New Zealand rabbits were observed and recorded using a slit lamp.
Corneal thickness test: corneal thickness was analyzed and measured using optical coherence tomography (OCT) to measure central corneal thickness, with no less than three New Zealand rabbits measured at each time point.
Phacoemulsification was performed on New Zealand white rabbits, where NAM-containing intraocular perfusate was used for irrigation, and perfusate of the balanced salt solution alone was used as a control.

mouse CECs = conditions: mice treated with high IOP, reported in the literature; cited from earlier work
Human CECs line B4G12 = experiment: Cellular assay: B4G12 cell damage induced by phacoemulsification in vitro; type: cell-based; conditions: 1 mM, 2.5 mM and 5 mM NAM; 1 hour and 24 hours after phacoemulsification; sonication 20 seconds, energy 30%; FIG. 8
Description: Preparation for cell culture in vitro: Human CECs line B4G12 was selected for culture, original medium was discarded, 3 mL of PBS buffer was added, 6.0 cm cell culture dish was shaken gently, rinsed twice, and PBS buffer was discarded. 1.0 mL of trypsin was added to completely cover the bottom of the dish, and the dish was placed in the incubator for 5 min. The dish gently shaken, tapped, and observed with a microscope. The adherent cells became suspended round cells, then 1.5 mL of complete medium [each 50 mL of human corneal endothelial cell basal medium (H-SFM, Creative Bioarray, New York, USA) supplemented with 1.5 mL of FBS and 0.5 mL of penicillin-streptomycin solution] was added to the flask on the laminar flow cabinet, and trypsin digestion of cells was stopped. The cells on all parts of the bottom of the flask were gently pipetted using the tip of the pipettor so that the cells became fully in suspension. The cell suspension was transferred to a 15 mL centrifuge tube and subjected to centrifugation at 1200 rpm for 5 min. After the centrifugation, the supernatant was discarded, 3 mL of complete medium was added to the centrifuge tube, and a resulting mixture was gently pipetted to eveness. The cells were allowed to resuspend sufficiently, then inoculated into 48-well cell culture plates at a cell density of 1×10^5 and incubated for 24 hours for subsequent experiments. […]

Structure (SMILES)	corneal transparency / edema (rabbit CECs)	recovery of corneal thickness (rabbit CECs)	protective effect on CECs in phacoemulsification (rabbit CECs)	protective effect on CECs during high IOP treatment (mouse CECs)	apoptosis and cell survival of B4G12 cells after phacoemulsification (Human CECs line B4G12)	intraocular pressure (IOP) after phacoemulsification (rabbit CECs; within 7 days after surgery, versus control group, FIG. 4)
NC(=O)CC[C@H](N)C(=O)O [Gln, glutamine]	still edematous	recovered more slowly	poor protective effect	protective effect on CECs in mice treated with high IOP	–	–
NC(=O)c1cccnc1 [NAM, nicotinamide]	transparent	recovered quickly	has a protective effect on CECs	–	could inhibit apoptosis induced by phacoemulsification and promote cell survival in a concentration-dependent manner	did not cause a pathological increase in IOP within 7 days after surgery
